Reference: US8603493B2, “Carbosilane dendrimers, preparation method thereof and use of same” (Dendrico, S.L., priority 2005, dated 2013)
“Also recorded” adds a separate entry of the source.

How the values were obtained:
[1] = test system: ODN; assay: Complex formation between CBS and ODN (agarose gel electrophoresis); type: binding; conditions: 3% agarose gel, RPMI, excess positive charge (+/−) 2/1 and higher
Text: The oligonucleotidic sequences used were antisense sequences (complementary) directed against HIV RNA. The length varied from 15 to 28 bases, being of phosphorothioate nature. The specific ODN used and their sequences are shown below in Table 1.
Several of the ODN were used fluorescent at the 5′ end. This is indicated by adding the letter F to its notation. Thus, “GF” makes reference to the fluorescent anti-gag ODN at end 5′, whilst “RF” makes reference to the anti-Rev ODN fluorescent at end 5′.
Different agarose concentrations were used to show the migration of the ODN and the dendriplexes, bearing in mind the small size of the ODN used. Finally, a 3% agarose concentration in TAE 1× was chosen as the best. The migration of non-fluorescent ODNs was compared with fluorescent ones, both migrating at the same height but the latter increasing the signal perceived considerably. Using them, it thus avoided the isotopic labelling of the ODN. A double well was manufactured to prepare these gels, to permit load volumes of 60 μl, of which 50 μl was mixture volume of the samples in RPMI and 10 μl load buffer with glycerol. As size marker, a ladder of 100 base pairs was used (Gibco BRL®).
For the complex formations in all the tests performed, both on gels and on cells the ratio between the number of positive and negative charges in said complex was taken. As published by different authors in studies with PAMAM dendrimers, it is necessary that the complex formed has an excess positive charge to facilitate its binding to the cell membrane glycoproteins, negatively charged, thus starting the endocytosis process. Likewise, an excess of positive charge is added to ensure the formation of the dendrimer-DNA complex. Therefore, the complexes between the CBS dendrimers and the different nucleic acids were formed in excess number of positive charges (provided by the CBS) compared with negative charges (provided by the ODN). Nevertheless, different charge ratios were tested, making the calculations based in the number of dendrimer charges (fixed) and the number of negative charges of the ODN (also fixed). The 2/1 ratio of positive/negative charges was fixed as sufficient in all dendrimers to form the complexes with a total positive charge, although in some experiments a balance was provided of an equal number of negative charges as positive charges or excess negative charges.
In all the tests, a complex formation volume of 60 μl was used, using phenol red without RPMI serum as support medium.
Tests of complex formation were used with the dendrimers of the invention IM8, ClNH4, NN, Phe and IM16.
The synthesis process of the CBS used in this work begins from an initial nucleus of common structure, which is ended functionalizing in the periphery by the use of different functional groups, which are those which provide the positive charge to the dendrimer and determine the differences between themselves, the dendrimeric nucleus being of apolar nature. Since some of the bonds of the functional groups used to the dendrimeric nucleus could be unstable in aqueous solution, tests were performed to determine if the DNA retention in agarose gels and, therefore, the complex formation between the CBS and the DNA could be due to the total dendrimer structure being conserved or in contrast, the terminal functional groups came away from the moiety of the dendrimeric core which are responsible for the DNA retention. For this, gels were used in which complexes were formed between the ODNs and the integral CBS and those formed supposedly between the ODNs and the terminal functional groups with which the carbosilane skeleton had functionalized, in this case quaternized dimethylethanolamine. As has previously been commented, those positively charged molecules, which are bound to the dendrimer as terminal functional groups, are those which give the dendrimer its charge. As control, the mixtures of ODN-dendrimers, ODN-monomers and ODN alone were compared. […]

[2] = test system: ODN PPT; assay: Stability of the dendriplexes at different pHs; type: physicochemical; conditions: dendriplexes with PPT, 2/1 charge ratio; for stability of dendrimer-ODN complex at the pHs tested: pHs 2.8, 2.7, 4.7, 5.7, 6.4, 7.4, 8
Protocol: Stability studies were carried out on the complexes a different pHs, to determine how the changes in pH would affect the complex, since there are different anatomic, tissue or cell localizations in which the pH acidifies or alkalinifies. Examples are stomach ambient acid, the alkali of the pancreatic secretions of the small intestine, or at a cellular level, the endosome-lisosome behaviour, where it changes from a physiological pH (7.35-7.45) to an acid pH around 4. It is interesting to know, therefore, in what pH range the DNA complex could be maintained with the different CBS used. The complexes were formed following the habitual process and volumes were added in excess of different solutions at different pHs. Therefore, for each one of dendrimers Phe, ClNH4, NN, IM8 and IM16, according to Example 31, 7 solutions were prepared of dendriplexes formed with PPT, in a 2/1 charge ratio and with the following pHs: […]; 2.7; 4.7; 5.7; 6.4; 7.4; 8: The results produced are shown in the electrophoresis gels which appear in FIG. 4, wherein the height of the normal ODN migration band is shown with arrows in the lower part of the gels. The samples were loaded from left to right following an increasing pH order. No sample was formed in the wells indicated with an X.

[3] = test system: PBMC; assay: Flow cytometry test (size and complexity; live cells vs apoptosis-necrosis); type: cell-based, human; conditions: 72 hours, same concentrations as Trypan Blue test
Protocol: The evaluation time on this occasion was 72 hours. The toxicity was evaluated on PBMC, produced in the manner described in Example 38. […] The ODN used was PPT, in the following way: • [ODN PPT] in the complex with the CBS: 2.57 (0.88 μM) • [ODN PPT] in the complex with SF: 0.34 μM • [ODN PPT] in the complex with G4: 1 μM […] The cells were either incubated with said complexes, a mixture of equal volume which contained ODN without CBS, a mixture which contained dendrimer alone, or with a mixture which contained only RPMI+complete medium which was used as negative control. The cells and/or the supernatant were then collected to be analysed by flow cytometry, confocal microscopy or cell DNA extraction. The percentages of cells with size and complexity corresponding to cells in apoptosis-necrosis were compared with the live cells. For this, the size (FW) and the complexity (SD) was evaluated by flow cytometry. To do this, a region was drawn around the cells with FW and SD corresponding to cells in apoptosis-necrosis and another around the cells with FW and SD corresponding to live cells. The percentages of cells present in each slide were compared. The graphics produced are shown in FIG. 15, wherein the X-axis represents the size (FW) and the Y-axis the complexity (SD). […] The cloud of dark cells corresponds to cells in apoptosis necrosis. The live cells are represented in grey.

Structure (SMILES)	complex formation with ODN (retention of DNA migration in gel) [1]	stability of dendrimer-ODN complex at the pHs tested [2]	Apoptosis-necrosis (%) [3]	Live cells (%) [3]	pH at which the dendrimer-ODN complex is labile / dissociated [2]
C[Si](C)(CCCN)CCC[Si](C)(CCC[Si](C)(C)CCCN)CCC[Si](CCC[Si](C)(CCC[Si](C)(C)CCCN)CCC[Si](C)(C)CCCN)(CCC[Si](C)(CCC[Si](C)(C)CCCN)CCC[Si](C)(C)CCCN)CCC[Si](C)(CCC[Si](C)(C)CCCN)CCC[Si](C)(C)CCCN.Cl.Cl.Cl.Cl.Cl.Cl.Cl.Cl [ClNH4, 2G-[Si(CH2)3NH3^+Cl^−]8]	capable of retaining the DNA also with all the charge ratios evaluated	stable at all pHs tested	26%	71%	
C[N+](C)(C)CCO[Si](C)(CCC[Si](C)(CCC[Si](CCC[Si](C)(CCC[Si](C)(OCC[N+](C)(C)C)OCC[N+](C)(C)C)CCC[Si](C)(OCC[N+](C)(C)C)OCC[N+](C)(C)C)(CCC[Si](C)(CCC[Si](C)(OCC[N+](C)(C)C)OCC[N+](C)(C)C)CCC[Si](C)(OCC[N+](C)(C)C)OCC[N+](C)(C)C)CCC[Si](C)(CCC[Si](C)(OCC[N+](C)(C)C)OCC[N+](C)(C)C)CCC[Si](C)(OCC[N+](C)(C)C)OCC[N+](C)(C)C)CCC[Si](C)(OCC[N+](C)(C)C)OCC[N+](C)(C)C)OCC[N+](C)(C)C.[I-].[I-].[I-].[I-].[I-].[I-].[I-].[I-].[I-].[I-].[I-].[I-].[I-].[I-].[I-].[I-] [IM16, 2G-[Si(OCH2CH2NMe3^+I^−)2]8]	capable of retaining the DNA		28%	67%	
C[N+](C)(C)CCOc1cc(CO[Si](C)(C)CCC[Si](C)(CCC[Si](CCC[Si](C)(CCC[Si](C)(C)OCc2cc(OCC[N+](C)(C)C)cc(OCC[N+](C)(C)C)c2)CCC[Si](C)(C)OCc2cc(OCC[N+](C)(C)C)cc(OCC[N+](C)(C)C)c2)(CCC[Si](C)(CCC[Si](C)(C)OCc2cc(OCC[N+](C)(C)C)cc(OCC[N+](C)(C)C)c2)CCC[Si](C)(C)OCc2cc(OCC[N+](C)(C)C)cc(OCC[N+](C)(C)C)c2)CCC[Si](C)(CCC[Si](C)(C)OCc2cc(OCC[N+](C)(C)C)cc(OCC[N+](C)(C)C)c2)CCC[Si](C)(C)OCc2cc(OCC[N+](C)(C)C)cc(OCC[N+](C)(C)C)c2)CCC[Si](C)(C)OCc2cc(OCC[N+](C)(C)C)cc(OCC[N+](C)(C)C)c2)cc(OCC[N+](C)(C)C)c1.[I-].[I-].[I-].[I-].[I-].[I-].[I-].[I-].[I-].[I-].[I-].[I-].[I-].[I-].[I-].[I-] [Phe, 2G-[Si(OCH2—(C6H3)-3,5-(OCH2CH2NMe3^+I^−)2)]8]	capable of forming complexes with the ODN	stable at all pHs tested	33%	61%	
CN(CCO[Si](C)(C)CCC[Si](C)(CCC[Si](CCC[Si](C)(CCC[Si](C)(C)OCCN(C)CC[N+](C)(C)C)CCC[Si](C)(C)OCCN(C)CC[N+](C)(C)C)(CCC[Si](C)(CCC[Si](C)(C)OCCN(C)CC[N+](C)(C)C)CCC[Si](C)(C)OCCN(C)CC[N+](C)(C)C)CCC[Si](C)(CCC[Si](C)(C)OCCN(C)CC[N+](C)(C)C)CCC[Si](C)(C)OCCN(C)CC[N+](C)(C)C)CCC[Si](C)(C)OCCN(C)CC[N+](C)(C)C)CC[N+](C)(C)C.[I-].[I-].[I-].[I-].[I-].[I-].[I-].[I-] [NN, 2G-[Si(O(CH2)2N(Me)(CH2)2NMe3^+I^−)]8]	capable of forming complexes with the ODN		24%	70%	
C[N+](C)(C)CCO[Si](C)(C)CCC[Si](C)(CCC[Si](CCC[Si](C)(CCC[Si](C)(C)OCC[N+](C)(C)C)CCC[Si](C)(C)OCC[N+](C)(C)C)(CCC[Si](C)(CCC[Si](C)(C)OCC[N+](C)(C)C)CCC[Si](C)(C)OCC[N+](C)(C)C)CCC[Si](C)(CCC[Si](C)(C)OCC[N+](C)(C)C)CCC[Si](C)(C)OCC[N+](C)(C)C)CCC[Si](C)(C)OCC[N+](C)(C)C.[I-].[I-].[I-].[I-].[I-].[I-].[I-].[I-] [IM8, 2G-[Si(OCH2CH2NMe3^+I^−)]8]	capable of retaining the DNA; also recorded: capable of retaining the migration of all the ODN		36%	59%	< 4.7
